Laboratory results as given in paper PMC3515450, “Mechanistic and Structural Understanding of Uncompetitive Inhibitors of Caspase-6” (PLoS ONE, 2012).
Where two headings read alike, the source gives them in different places.

Target: T1, caspase-6 (Homo sapiens, UniProt P55212)
T1 construct: Residues 24-179 and 194-293 from caspase-6 cDNA (Origene) were cloned into pET-24b and pET-23b vectors; 6x histidine tag (C); made in house; host or cells: E. coli BL21 (DE3) pLysS
T1 sequence (P55212 24-179): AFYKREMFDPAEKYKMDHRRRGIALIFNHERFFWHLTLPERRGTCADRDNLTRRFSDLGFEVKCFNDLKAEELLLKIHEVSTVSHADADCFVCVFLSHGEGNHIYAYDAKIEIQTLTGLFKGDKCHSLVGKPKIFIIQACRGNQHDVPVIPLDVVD
T1 sequence (P55212 194-293): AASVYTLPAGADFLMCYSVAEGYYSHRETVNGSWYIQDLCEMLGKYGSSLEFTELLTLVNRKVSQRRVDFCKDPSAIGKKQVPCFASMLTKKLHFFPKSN
Experiment: Caspase-6 enzymatic assay with fluorogenic tetrapeptide substrates
Format: biochemical
Method: The in vitro enzymatic caspase assays utilize synthetic tetrapeptide substrates labeled with the fluorophores Rhodamine110 (R110) or 7-amino-4-methylcoumarin (AMC) at the P1 aspartic acid (Asp) residue. All assays were performed in 384-well plates in 12 µL reaction volume consisting of enzyme, substrate and indicated concentration of inhibitor or DMSO in assay buffer (50 mM HEPES [pH 7.0], 25 mM MgSO4, 0.5 mM EGTA, 5 mM Glutathione (GSH), 0.01% Triton X-100 containing 0.1% Bovine Gamma Globulin (BGG)). All inhibitors were serially diluted in 100% DMSO prior to dilution in assay buffer and transfer to assay plate. DMSO was diluted into assay buffer similarly for blank wells (no enzyme or compound) and final DMSO concentration was 1%. The concentration of caspase-6 used in enzymatic reactions typically varied between 1–10 nM depending on substrate used. Unless otherwise indicated, substrate concentration was within 3-fold of the determined Kmapparent (5 µM (Ac-VEID)2R110 [Kmapp = 8 µM]; 5 µM (Ac-DEVD)2R110 [Kmapp = 8 µM]; 25 µM (Ac-IETD)2R110 [Kmapp = 70 µM]; 25 µM (Ac-WEHD)2R110 [Kmapp = 70 µM]; 10µM Ac-VEID-AMC [Kmapp = 16µM]; 5 µM Ac-VEID-R110 [Kmapp = 8 µM]). The concentration of substrate utilized in selectivity assays for each caspase isoform was also held as close to Kmapparent as reasonably achievable (Table S1). Caspases-3 and -7 were expressed and purified at Genentech as the catalytic domain consisting of large p20 and small p10 subunits without prodomain. For all caspase enzymatic assays, the reaction plate was incubated at room temperature for 40 minutes and then read on Envision (Perkin Elmer) fluorescent plate reader at excitation/emission wavelengths of 485/535 nm (R110) or 350/450 nm (AMC). […]
The endpoint fluorescent emission (RFU) in each well was plotted as a function of inhibitor concentration and the 50% inhibition (IC50) values were determined using a nonlinear least squares fit of the data to a four parameter equation using Prism 5.0 software (GraphPad Software, San Diego, CA). […] Ki values for Compound 3 were calculated using this equation: Ki = IC50/(Km/[S] +1). Concentration-response curves for each inhibitor were normalized to zero and 100% based on no enzyme or DMSO control, respectively. For steady-state kinetic analysis, initial reaction velocity (RFU/minute) was plotted against substrate concentration at each inhibitor concentration and the data was fit to a hyperbolic Michaelis-Menten model using Prism 5.0 software. Km (µM) and Vmax (RFU/minute) were calculated by using this equation: v = Vmax • [S]/Km+[S] where v = initial reaction velocity at indicated substrate concentration (S). Vmax values were normalized to zero and 100% based on no enzyme or DMSO control, respectively.
Expression and purification of caspase-6 for enzymatic assays: Human caspase-6 was expressed as the mature enzyme using a split construct. Residues 24-179 and 194-293 from caspase-6 cDNA (Origene) were cloned into pET-24b and pET-23b vectors (Novagen) respectively; the small subunit contained a C-terminal 6x histidine tag. Vectors were cotransfected into the E.coli strain BL21 (DE3) pLysS (Stratagene). Cells were grown from a single colony in 6L of 2xYT supplemented with ampicillin and kanamycin at 37 °C to an OD of ~ 0.5 and were subsequently cooled to 16 °C before overnight induction with 0.2 mM IPTG. Cells were harvested by centrifugation, resuspended in 100 mM NaCl, 100 mM Tris, pH 8.0, and lysed.

Ki ((VEID)2R110 substrate, calculated from IC50): 0.004 µM | fold weaker with (DEVD)2R110 than with (VEID)2R110 substrate (caspase-6): ~44 fold | IC50 (caspase-6, (DEVD)2R110 substrate, read-out: IC50): 0.481 µM | IC50 (caspase-6, (IETD)2R110 substrate, read-out: inhibition of (IETD)2R110 cleavage): ~100 µM | binding efficiency index (BEI; pIC50/molecular weight) (caspase-6, (VEID)2R110): 19.7 | IC50 (caspase-6, (WEHD)2R110 substrate, not inhibited up to this concentration, read-out: inhibition of (WEHD)2R110 cleavage): > 100 µM | IC50 (caspase-6, monovalent VEID-AMC substrate, read-out: IC50): 14 µM | IC50 (caspase-6 cleavage of (VEID)2R110 substrate, read-out: IC50 (potency)): 0.011 µM | selectivity for caspase-6 cleavage of (VEID)2R110 compared to other caspase family members tested (versus caspases-3 and -7): near absolute selectivity
Structure (SMILES): COc1ccc(-c2cc(C(=O)N[C@@H](CO)Cc3cccc(C#N)c3)co2)cc1OC [Compound 3]
